Ten molecules from ChEMBL document CHEMBL1201862, “PubChem BioAssay data set” (2004) can be followed below.

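Cells were grown in 96-well plates and exposed to each compound for 48 hours at five concentrations; endpoints were interpolated linearly between bracketing concentrations, or set to the highest concentration if not reached. GI50 marks 50% less growth.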 Active and inactive are the calls of the source. Rule as the data show it: active = GI50 up to about 1.1 µM and inactive = higher.

Common to all, as to assay: NCI-60 cell line screen, 48 h
Experiment [1] has as its system K562.
The subject of experiment [2] is HL-60.
Experiment [3] relates to TK-10.
Experiment [4] deals with SNB-19.
Experiment [5] has as its system DU-145.
The test system of experiment [6] is NCI-H226.
For experiment [7], the system named is UACC-257.
Experiment [8] concerns CAKI-1.
The test system of experiment [9] is NCI/ADR-RES.
Experiment [10] concerns M14.
In experiment [11] the test system is HCT-15.
The test system of experiment [12] is 786-0.
In experiment [13] the test system is OVCAR-4.
The subject of experiment [14] is SF-295.
The subject of experiment [15] is SNB-75.
Experiment [16] deals with CCRF-CEM.
Experiment [17] deals with MOLT-4.
In experiment [18] the test system is COLO 205.
Experiment [19] has as its system SK-MEL-2.
Experiment [20] deals with MDA-MB-435.

Take `NCc1ccccc1.O=C(O)NCc1ccccc1`: the GI50 in experiment [1] is 24.3 µM (inactive); in experiment [2], 26.7 µM (inactive); in experiment [3] it was 31.4 µM (inactive); in experiment [4], 40.3 µM (inactive); in experiment [5], 42.8 µM (inactive); in experiment [6], 30.1 µM (inactive). Further, the GI50 was 32 µM (inactive) in [7]; 42.7 µM (inactive) in experiment [8]; 26.9 µM (inactive) in experiment [9]; 33.9 µM (inactive) in [10]; 30.8 µM in [11]; 36.3 µM (inactive) in experiment [12]. Also, the GI50 in [13] was 25.1 µM (inactive); in [14] it was 31.2 µM (inactive); in experiment [15], 27.4 µM (inactive); in [16], 19.4 µM (inactive); in [17] it was 18.8 µM (inactive); in [18] it was 19.3 µM (inactive). Also, the GI50 in experiment [19] was 8.91 µM (inactive); in experiment [20], 31.5 µM (inactive).
With `CC(C)(C)OC(=O)N1CCc2c(n(C/C=C/c3ccccc3)[nH]c2=O)C1`, the GI50 in experiment [1] is 46.6 µM (inactive); in [2], 27.8 µM (inactive); in experiment [3], > 81.3 µM (inactive); in [4], > 100 µM (inactive); in [5], > 87.9 µM (inactive); in experiment [6], > 100 µM (inactive). The GI50 in [7] is > 100 µM (inactive); in experiment [8], > 100 µM (inactive); in experiment [9], 26.2 µM (inactive); in experiment [10] it was > 100 µM (inactive); in [11], above 100 µM; in [12] it was > 100 µM (inactive). The GI50 in [13] was 97.1 µM (inactive); in experiment [14], > 100 µM (inactive); in experiment [15], > 100 µM (inactive); in experiment [16] it was 72.3 µM (inactive); in experiment [17], 33.6 µM (inactive); in experiment [18] it was > 70.6 µM (inactive). Also, the GI50 in experiment [19] and in [20] was > 100 µM (inactive) in each case.
For the molecule `NCCN1C(=O)CN=C(c2ccc(Cl)cc2)c2cc(Cl)ccc21`, the GI50 in experiment [1] was 16.3 µM (inactive); in experiment [2], 16 µM (inactive); in [3], 16.1 µM (inactive); in experiment [4], 20.1 µM (inactive); in experiment [5], 17.1 µM (inactive); in experiment [6], 14 µM (inactive). The GI50 in experiment [7] was 19 µM (inactive); in experiment [8], 16.3 µM (inactive); in [9] it was 15.9 µM (inactive); in experiment [10], 16.1 µM (inactive); in experiment [11], 16.7 µM; in experiment [12], 15.9 µM (inactive). In addition, the GI50 in experiment [13] is 16.2 µM (inactive); in [14] it was 32.8 µM (inactive); in [15], 14.9 µM (inactive); in experiment [16] it was 15.5 µM (inactive); in experiment [17], 0.46 µM (active); in experiment [18], 19.3 µM (inactive). Moreover, the GI50 in [19] is 16.3 µM (inactive); in [20], 14.9 µM (inactive).
For `CCOC(=O)c1cccc([N+](=O)[O-])c1N`, the GI50 in experiment [1], in [2], in experiment [3], in [4], in experiment [5] and in experiment [6] was > 100 µM (inactive) each time. The GI50 in [7] is > 100 µM (inactive); in [8] it was > 100 µM (inactive); in experiment [9] it was > 100 µM (inactive); in experiment [10] it was > 100 µM (inactive); in [11] it was above 100 µM; in experiment [12] it was > 100 µM (inactive). Further, the GI50 in experiment [13] is > 100 µM (inactive); in experiment [14] it was > 100 µM (inactive); in [15], 62.1 µM (inactive); in [16], > 100 µM (inactive); in [17], > 100 µM (inactive); in [18], > 100 µM (inactive). Moreover, the GI50 in [19] and in experiment [20] was > 100 µM (inactive) each time.
Consider `CCN(CC)CCOCC1CCCN2CCCCC12` (stereo not given), for which the GI50 in experiment [1], in [2], in experiment [3], in experiment [4], in experiment [5] and in experiment [6] was > 100 µM (inactive) in each case. The GI50 in [7] was > 100 µM (inactive); in experiment [8], > 100 µM (inactive); in [9] it was > 100 µM (inactive); in [10], > 100 µM (inactive); in [11], above 100 µM; in [12], > 100 µM (inactive). In addition, the GI50 in [13], in experiment [14], in experiment [15], in experiment [16], in [17] and in experiment [18] was > 100 µM (inactive) throughout. In addition, the GI50 in experiment [19] and in experiment [20] was > 100 µM (inactive) each time.
As to `O=C(C1OC1c1cccc([N+](=O)[O-])c1)C12CC3CC(CC(C3)C1)C2` (stereo not given), the GI50 in experiment [1] is 2.58 µM (inactive); in experiment [2], 2.43 µM (inactive); in experiment [3], 18.1 µM (inactive); in [4], 8.13 µM (inactive); in experiment [5], 13.8 µM (inactive); in experiment [6] it was 10.5 µM (inactive). Moreover, the GI50 is 11.7 µM (inactive) in experiment [7]; 8.83 µM (inactive) in [8]; 3.24 µM (inactive) in experiment [9]; 8.99 µM (inactive) in experiment [10]; 4.3 µM in experiment [11]; 2.69 µM (inactive) in experiment [12]. For the same molecule, the GI50 was 4.27 µM (inactive) in experiment [13]; 6.11 µM (inactive) in [14]; 6.78 µM (inactive) in experiment [15]; 2.89 µM (inactive) in experiment [16]; 2.82 µM (inactive) in [17]; 9.89 µM (inactive) in experiment [18]. The GI50 in [19] is 14.3 µM (inactive); in [20] it was 3.52 µM (inactive).
As to `Oc1cc(Br)cc2cc(Cl)cnc12`, the GI50 in experiment [1] is 0.627 µM (active); in experiment [2] it was 0.463 µM (active); in [3], 28.5 µM (inactive); in experiment [4], 3.11 µM (inactive); in [5], 4.56 µM (inactive); in experiment [6], 16.3 µM (inactive). In addition, the GI50 in experiment [7] is 3.27 µM (inactive); in [8], 7.55 µM (inactive); in [9] it was 1.21 µM (inactive); in experiment [10], 1.35 µM (inactive); in [11], 0.665 µM; in experiment [12] it was 8.71 µM (inactive). In addition, the GI50 was 1 µM (active) in [13]; 2.08 µM (inactive) in [14]; 8.2 µM (inactive) in [15]; 1.53 µM (inactive) in experiment [16]; 1.55 µM (inactive) in experiment [17]; 21.4 µM (inactive) in experiment [18]. Further, the GI50 is 22.3 µM (inactive) in experiment [19] and 3.3 µM (inactive) in [20].
As for `COc1cc2c(SCCN(C)C)nc3ccccc3c2c2ccccc12`, the GI50 in [1] is 1.72 µM (inactive); in experiment [2] it was 0.193 µM (active); in experiment [3], 2.7 µM (inactive); in experiment [4] it was 2.45 µM (inactive); in experiment [5], 3.71 µM (inactive); in experiment [6], 1.94 µM (inactive). For the same molecule, the GI50 in [7] is 1.77 µM (inactive); in experiment [8], 1.88 µM (inactive); in experiment [9], 5.38 µM (inactive); in [10], 1.68 µM (inactive); in experiment [11], 1.61 µM; in [12], 1.93 µM (inactive). Besides, the GI50 was 2.62 µM (inactive) in experiment [13]; 1.77 µM (inactive) in experiment [14]; 2.51 µM (inactive) in [15]; 0.281 µM (active) in experiment [16]; 1.54 µM (inactive) in [17]; 1.68 µM (inactive) in [18]. In addition, the GI50 in [19] is 1.87 µM (inactive); in [20], 1.96 µM (inactive).
As to `COc1cc(/C=C2\CC3C4CC[C@H]5C[C@@H](O)CC[C@]5(C)C4CC[C@]3(C)\C2=N\O)cc(OC)c1OC` (stereo not given in full), the GI50 in experiment [1] was 4.66 µM (inactive); in experiment [2], 3.46 µM (inactive); in experiment [3], 16.8 µM (inactive); in [4] it was 29.7 µM (inactive); in experiment [5], 13.1 µM (inactive); in experiment [6], 10.8 µM (inactive). Besides, the GI50 is 10.7 µM (inactive) in [7]; 4.09 µM (inactive) in experiment [8]; 12.9 µM (inactive) in experiment [9]; 14.4 µM (inactive) in experiment [10]; 9.48 µM in [11]; 7.96 µM (inactive) in [12]. For the same molecule, the GI50 in experiment [13] was 5.74 µM (inactive); in experiment [14], 3.97 µM (inactive); in experiment [15] it was 13.4 µM (inactive); in experiment [16], 6.47 µM (inactive); in experiment [17], 5.33 µM (inactive); in experiment [18], 5.94 µM (inactive). The GI50 in experiment [19] was 11.7 µM (inactive); in [20], 7.41 µM (inactive).
As for `O=C(CCc1ccc(O)c(O)c1)c1ccc(O)c(O)c1O`, the GI50 in experiment [1] was 13.2 µM (inactive); in experiment [2], 11.5 µM (inactive); in [3] it was 19 µM (inactive); in experiment [4] it was 34.4 µM (inactive); in experiment [5] it was 19.7 µM (inactive); in experiment [6], 11.5 µM (inactive). The GI50 was 31.5 µM (inactive) in [7]; 17.8 µM (inactive) in experiment [8]; 26.5 µM (inactive) in [9]; 16.8 µM (inactive) in experiment [10]; 14.7 µM in experiment [11]; 35.2 µM (inactive) in experiment [12]. Moreover, the GI50 in [13] is 19.7 µM (inactive); in experiment [14], 18.3 µM (inactive); in experiment [15], 19.1 µM (inactive); in experiment [16], 10.2 µM (inactive); in experiment [17] it was 22.3 µM (inactive); in experiment [18], 17.7 µM (inactive). Besides, the GI50 was 58.7 µM (inactive) in experiment [19] and 18.9 µM (inactive) in experiment [20].
